From patent publication US10494402B2, “Peptides that stimulate subcutaneous adipogenesis” (The Regents of the University of California, priority 2012, dated 2019)

How the values were obtained:
[1] = tested on: rat mesenchymal stem cells; test: Adipogenesis Assay 1 (IBMX/dexamethasone priming, peptide replaces insulin; Oil Red O or BODIPY); type: cell-based; details: for Fold adipogenic induction vs. negative control / Specific activity (activity/1000 daltons) / adipogenesis, absorption of Oil Red O at 520 nm, fold increase compared with negative control / adipogenesis, number of fat droplets relative to negative controls (image analysis): Assay 1; for adipogenesis, absorption of Oil Red O at 520 nm, fold increase compared with negative control / adipogenesis, number of fat droplets relative to negative controls (image analysis): rat bone marrow mesenchymal stem cells, n=3; for adipogenesis, absorption of Oil Red O at 520 nm, fold increase compared with negative control: 0.1-25 μg
Procedure: Reagents: (1) 3-isobutyl-1-methylxanthine (IBMX) solution: 0.5M in DMSO; (2) Insulin solution: 10 mg/mL recombinant human insulin; (3) Dexamethasone solution in 10 mM in ethanol; (4) Oil Red O (0.36% in 60% isopropanol) or BODIPY dye (BODIPY 493/503 (4,4-difluoro-1,3,5,7-tetramethyl-4-bora-3a,4a-diaza-s-indacene-8-propionic acid, succinimidyl ester) from Invitrogen at 4-10 μM).
Adipogenesis Initiation Media: mesenchymal stem cell expansion media/0.5 mM IBMX/1 μM dexamethasone. Mesenchymal stem cell expansion media is commercially available from Millipore. The IBMX Solution was diluted 1:1000 and the Dexamethasone Solution was diluted 1:10,000 in expansion media containing antibiotics and antimycotics. The prepared media was stored at 4° C.
Adipogenesis Progression Media for positive control: mesenchymal stem cell expansion media/10 μg/mL insulin. The Insulin Solution was diluted 1:1000 in the expansion media and stored at 4° C.
Experimental Adipogenesis Progression Media: mesenchymal stem cell expansion media/1-100 μg/mL RHAMM antagonist peptides.
Adipogenesis Maintenance Media: mesenchymal stem cell expansion media containing antibiotics and antimycotics.
Negative Control Media: DMEM/10% normal calf serum.
Pre-adipocyte stem cells including bone marrow mesenchymal stem cells and fibroblasts including reticular and papillary dermal fibroblasts were propagated using standard tissue culture methods. Cells were trypsinized to remove the cells from the substratum. The trypsin was neutralized and cells were counted using a hemocytometer. Cells were resuspended at 30,000 cells/mL in expansion media. […] of cell suspension was plated per well of 24-well plate, with several wells left empty for blank well staining.
Cells were incubated for 1-2 days until they reached confluency. Approximately 1.8 mL of media was removed from each well and replaced with 2 mL Adipogenesis Initiation Media. For negative control wells, expansion media only was used at this step and for subsequent media changes. For all media changes, media was replaced as gently as possible to avoid disturbing the monolayer.
Cells were incubated for 48 hours at 37° C., 5% CO2. 2 mL media was removed from each well, and replaced with 2 mL either positive control or experimental Adipogenesis Progression Media per well. Cells were again incubated for 48 hours at 37° C., 5% CO2. 2 mL of media was removed from each well and replaced with 2 mL Adipogenesis Maintenance Media per well. In addition, media was added to the empty wells reserved for blank well staining Cells were incubated for at least 48 hours at 37° C., 5% CO2. Media was replaced every 48-72 hours. Accumulation of intracellular lipid droplets continued for at least 5 days.
For quantification of Oil Red O staining, media was removed and cells were washed twice with PBS, using care to gently add the PBS. 0.5 mL Oil Red O solution was added per well of 24-well plate, including to the wells lacking cells, but containing media. Cells were incubated for 15 minutes at room temperature. The staining solution was then removed and wells were washed three times with 1 mL of phosphate buffered saline (PBS). In some experiments, following removal of the last wash, stained plates were scanned or photographed.
Adipogenesis was quantified using a spectrophotometer or fluorometer. 0.25 mL Dye Extraction Solution (isopropyl alcohol) was added per well, and the plate was set on an orbital shaker or platform rocker for 15-30 minutes. Extracted dye was transferred into a cuvette and absorbance was read in a spectrophotometer at visible range for oil red 0 or transferred to a 96-well plate and quantified in a plate reader.
For quantification of BODIPY dye uptake, media was removed and cells were washed twice with PBS, using care to gently add the PBS. Cells were then fixed in 3% paraformaldehyde, washed in PBS then incubated for 1 hour in the dark with the BODIPY solution, prepared in PBS. […]

Rat skin = test: Rat dermal skin model of adipogenesis (injection into dermis); type: in vivo
Procedure: Examples of the adipogenic effects of RHAMM antagonists (peptide B (SEQ ID NO: 2), peptide P15-1 (SEQ ID NO. 1), and the antibody to peptide B) are summarized in Table 1. Peptide P15-1, peptide B, and a RHAMM antibody were assayed for their effects on pre-adipocyte stem cells in culture and when injected into the dermis of aged rats. Reagents were ranked on a scale of 0-5 with 5 representing the highest possible score and a completely filled in Harvey ball. “2D” refers to two-dimensional tissue culture.
In FIGS. 5A and 5B, data are shown as a ratio of the area (“surface area”) of fat pads expressed as a ratio of experimental/control values.
The 6-mer (KSEVSK; SEQ ID NO: 3) was tested for adipogenic effect in rat skin in vivo. The results of this testing are shown in the photographs in FIG. 10.

[2] = tested on: human papillary fibroblasts (HPF); test: Transdifferentiation of primary human dermal fibroblasts, papillary; type: cell-based; details: 5 μg/ml; peptide replaced insulin
Procedure: The B peptide and the KSEVSK 6-mer were also tested for their adipogenic effect on primary human dermal fibroblasts from the upper (papillary) and lower (reticular) dermal layers. The primary human fibroblasts were obtained from dermatome sections of biopsies from human volunteers. Cells were cultured and exposed to adipogenic medium. In these experiments, the B peptide and the KSEVSK 6-mer replaced insulin as the adipogenic stimulus. The peptides were used at a concentration of 5 μg/ml. Adipogenesis was assessed by Oil Red O staining. […] White arrows show fat droplets.

Substance	Fold adipogenic induction vs. negative control [1]	Specific activity (activity/1000 daltons) [1] [activity/1000 daltons]	amount at which a maximum adipogenic effect was obtained ([1]; bone marrow mesenchymal stem cells, depending upon the screening assay used (assay 1 or 2)) [µg]	adipogenesis, absorption of Oil Red O at 520 nm, fold increase compared with negative control [1]	adipogenesis, number of fat droplets relative to negative controls (image analysis) [1]	fat accumulation (fat pads) (Rat skin; 25-50 μg/injection site)	animals in which reagent was most effective (fat pad surface area, experimental/control) (Rat skin; FIGS. 5A and 5B)	adipogenic potential, In vivo Rat skin (Rat skin; injected into the dermis of aged rats, scale of 0-5, 5 highest)	transdifferentiation into adipocytes, Oil Red O staining [2]	specific activity compared among peptide B and 9-, 7-, 6-mer ([1]; calculated from adipogenesis data of assays 1 and 2)	adipogenic activity of truncation fragments ([1]; truncation experiments, assays 1 and 2, FIGS. 7, 8, 9)	fat pad induction in rat skin in vivo (Rat skin; FIG. 10)
KLKDENSQLKSEVSK [peptide B]	1.85	1.0	1 to 5	significantly stimulated adipogenesis as compared to the negative control	significantly stimulated adipogenesis as compared to the negative control	induced significant fat accumulation	most effective in old females	5	had no effect	–	–	–
KSEVSK [KSEVSK 6-mer]	2.83	3.76	–	significantly stimulated adipogenesis as compared to the negative control	significantly stimulated adipogenesis as compared to the negative control	–	–	–	had no effect	highest specific activity	also found to be adipogenic	able to induce large fat pads, possibly larger than peptide B
